Measured values: ChEMBL document CHEMBL1201862, “PubChem BioAssay data set” (2004)
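All cell lines were grown in 96-well plates and treated with compound for 48 hours. At the GI50, growth is halved.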 Active and inactive are the calls of the source. Rule as the data show it: active = GI50 up to about 1.1 µM and inactive = higher.

Assays:
Assay in all cases: NCI tumour cell line growth inhibition, 48 h
OVCAR-4 = system: OVCAR-4
NCI-H226 = system: NCI-H226
SK-MEL-28 = system: SK-MEL-28
LOX IMVI = system: LOX IMVI
MOLT-4 = system: MOLT-4
OVCAR-5 = system: OVCAR-5
HOP-62 = system: HOP-62
UO-31 = system: UO-31
CCRF-CEM = system: CCRF-CEM
ACHN = system: ACHN
HT-29 = system: HT-29
M14 = system: M14
CAKI-1 = system: CAKI-1
K562 = system: K562
SF-539 = system: SF-539
NCI-H522 = system: NCI-H522

Measured: GI50

CCOC(=O)C(=O)C1C(=O)Nc2ccccc21 (stereo unspecified)
inactive: OVCAR-4 > 100 µM | NCI-H226 > 100 µM | SK-MEL-28 > 100 µM | LOX IMVI > 100 µM | MOLT-4 > 100 µM | OVCAR-5 > 100 µM | HOP-62 > 100 µM | UO-31 > 100 µM | CCRF-CEM > 100 µM | ACHN > 100 µM | HT-29 > 100 µM | M14 > 100 µM | CAKI-1 > 100 µM | K562 > 100 µM

[N-]=[N+]=NC(c1cn(C2CC(O)C(CO)O2)c(=O)[nH]c1=O)C(I)I (stereo unspecified)
inactive: OVCAR-4 75.7 µM | NCI-H226 9.55 µM | SK-MEL-28 > 100 µM | LOX IMVI > 100 µM | MOLT-4 > 100 µM | OVCAR-5 > 100 µM | HOP-62 > 100 µM | UO-31 > 100 µM | CCRF-CEM > 100 µM | SF-539 > 100 µM | ACHN > 100 µM | HT-29 > 100 µM | M14 > 100 µM | CAKI-1 > 100 µM | K562 > 100 µM

Cn1ncc(=S)[nH]c1=S
inactive: OVCAR-4 > 100 µM | NCI-H226 > 100 µM | SK-MEL-28 > 100 µM | LOX IMVI > 100 µM | MOLT-4 > 100 µM | OVCAR-5 > 100 µM | HOP-62 > 100 µM | UO-31 > 100 µM | CCRF-CEM > 100 µM | NCI-H522 > 100 µM | SF-539 > 100 µM | ACHN > 100 µM | M14 > 100 µM | K562 > 100 µM

CN(C)C(=N)NC(N)=S
inactive: OVCAR-4 > 100 µM | NCI-H226 > 100 µM | SK-MEL-28 > 100 µM | LOX IMVI > 100 µM | MOLT-4 > 100 µM | OVCAR-5 > 100 µM | HOP-62 > 100 µM | UO-31 > 100 µM | NCI-H522 > 100 µM | SF-539 > 100 µM | ACHN > 100 µM | HT-29 > 100 µM | M14 > 100 µM | CAKI-1 > 100 µM | K562 > 100 µM

Cc1ccc(S(=O)(=O)NNS(C)(=O)=O)cc1
inactive: OVCAR-4 > 100 µM | LOX IMVI > 100 µM | MOLT-4 > 100 µM | HOP-62 > 100 µM | UO-31 > 100 µM | CCRF-CEM > 100 µM | NCI-H522 > 100 µM | SF-539 > 100 µM | ACHN > 100 µM | HT-29 > 100 µM | M14 > 100 µM | CAKI-1 > 100 µM | K562 > 100 µM

CCOc1ccccc1NC(=O)CCc1n[nH]c(=S)o1
inactive: NCI-H226 > 100 µM | SK-MEL-28 > 100 µM | LOX IMVI > 100 µM | MOLT-4 > 100 µM | UO-31 63.4 µM | CCRF-CEM > 100 µM | NCI-H522 > 100 µM | SF-539 > 100 µM | ACHN > 100 µM | HT-29 > 100 µM | M14 > 100 µM | CAKI-1 > 100 µM | K562 > 100 µM

Cc1cccc(-c2nnc(S)[nH]2)c1
inactive: OVCAR-4 > 100 µM | NCI-H226 > 100 µM | SK-MEL-28 > 100 µM | MOLT-4 89.5 µM | OVCAR-5 > 100 µM | HOP-62 > 100 µM | UO-31 > 100 µM | CCRF-CEM > 100 µM | NCI-H522 > 100 µM | SF-539 > 100 µM | ACHN > 100 µM | HT-29 > 100 µM | M14 > 100 µM | CAKI-1 > 100 µM | K562 > 100 µM

Nc1nc(SCc2ccc([N+](=O)[O-])cc2)nc2c1ncn2C1OC(CO)C(O)C1O (stereo unspecified)
inactive: OVCAR-4 > 100 µM | NCI-H226 > 100 µM | SK-MEL-28 > 100 µM | LOX IMVI > 100 µM | MOLT-4 > 100 µM | OVCAR-5 > 100 µM | HOP-62 > 100 µM | UO-31 > 100 µM | CCRF-CEM > 100 µM | NCI-H522 89.5 µM | ACHN > 100 µM | HT-29 > 100 µM | K562 > 100 µM

C[C@]12CCC(=O)C=C1CC[C@@H]1C2CC[C@@]2(C)C1CC[C@@H]2OC(=O)C12OC1CCC2=O (stereo partly specified)
inactive: OVCAR-4 21.6 µM | NCI-H226 19.1 µM | SK-MEL-28 17.4 µM | LOX IMVI 16 µM | MOLT-4 10.1 µM | OVCAR-5 17.9 µM | HOP-62 30.7 µM | UO-31 16.5 µM | CCRF-CEM 12.2 µM | NCI-H522 10.7 µM | SF-539 20.3 µM | ACHN 15.6 µM | HT-29 18.9 µM | M14 18.5 µM | K562 24.4 µM

CC(c1ccccc1)N1CC(C)(c2ccccc2)N(O)C(c2ccccc2)C1C (stereo unspecified)
inactive: SK-MEL-28 4.08 µM | LOX IMVI 12.2 µM | MOLT-4 3.47 µM | OVCAR-5 16.9 µM | HOP-62 15.5 µM | UO-31 3.23 µM | CCRF-CEM 5.66 µM | NCI-H522 6.4 µM | SF-539 5.73 µM | ACHN 3.59 µM | HT-29 23.4 µM | K562 7.28 µM

CCOC(=O)C1Oc2ccc([N+](=O)[O-])cc2C1(C)O (stereo unspecified)
inactive: OVCAR-4 > 100 µM | NCI-H226 > 100 µM | SK-MEL-28 > 100 µM | LOX IMVI > 100 µM | MOLT-4 > 100 µM | OVCAR-5 > 100 µM | HOP-62 > 100 µM | UO-31 > 100 µM | CCRF-CEM > 100 µM | NCI-H522 > 100 µM | SF-539 > 100 µM | ACHN > 100 µM | HT-29 > 100 µM | M14 > 100 µM | K562 > 100 µM

O=S1(=O)c2ccccc2N=C(c2ccccc2Cl)CC1c1ccc(F)cc1 (stereo unspecified)
inactive: OVCAR-4 18.4 µM | SK-MEL-28 18.2 µM | LOX IMVI 16.7 µM | MOLT-4 13.7 µM | OVCAR-5 15.7 µM | HOP-62 > 10 µM | UO-31 15.2 µM | CCRF-CEM 14.1 µM | NCI-H522 13.6 µM | SF-539 20.3 µM | ACHN 18.4 µM | M14 19 µM | CAKI-1 14.4 µM | K562 7.62 µM

Cc1noc(C)c1C1=CCCCc2ccccc21
inactive: OVCAR-4 > 100 µM | SK-MEL-28 > 100 µM | MOLT-4 25.7 µM | OVCAR-5 > 100 µM | HOP-62 > 100 µM | UO-31 > 100 µM | CCRF-CEM 78.9 µM | NCI-H522 36.3 µM | SF-539 > 100 µM | ACHN 87.9 µM | HT-29 > 100 µM | M14 79.6 µM | K562 31.4 µM

C=CC/C=C/C/C=C/CCCCCCCc1cccc(O)c1C(=O)O
inactive: OVCAR-4 42.2 µM | SK-MEL-28 32.7 µM | LOX IMVI 44.7 µM | MOLT-4 42.8 µM | OVCAR-5 > 100 µM | HOP-62 14.4 µM | UO-31 25.2 µM | CCRF-CEM 30.3 µM | NCI-H522 39.5 µM | SF-539 69.5 µM | ACHN 44.2 µM | HT-29 48.8 µM | M14 82.8 µM | CAKI-1 32.1 µM | K562 33.3 µM
